Test results: patent US12653894B2, “Degradation of FAK or FAK and ALK by conjugation of FAK and ALK inhibitors with E3 ligase ligands and methods of use” (DANA-FARBER CANCER INSTITUTE, INC., priority 2018, dated 2026)
Where two headings read alike, the source gives them in different places.

Target: FAK (Homo sapiens, UniProt Q05397)
Assay: FAK degradation by immunoblot in PA-TU-8988T cells
Format: cell-based
Parameters: endogenous in cells; host or cells: PA-TU-8988T
Details: for inhibition at 0.01 µM / inhibition at 0.1 µM: PaTu 8988t; for inhibition at 0.01 µM: read-out: Degradation at 10 nM; for inhibition at 0.1 µM: read-out: Degradation at 100 nM
Method: Immunoblotting for FAK was performed to evaluate changes in protein levels upon FAK degrader treatment. All samples were run with equal total protein content and immunoblotting was performed using antibodies that detect total FAK protein as well as GAPDH or α-Tubulin as a loading control. Fluorescently labelled infrared secondary antibodies that enable detection using an Odyssey® CLx Imager was employed to evaluate protein levels.
FAK degraders were evaluated in immunoblot assays to determine the effective dose required to achieve FAK protein loss. Immunoblots for FAK protein were normalized relative to the loading control and percent degradation was evaluated compared to DMSO treatment.

[1] = PA-TU-8988T cells, 4 hours, immunoblot
[2] = total FAK protein, PA-TU-8988T cells, 10 nM, 4 hours, vs DMSO
[3] = total FAK protein, PA-TU-8988T cells, 100 nM, 4 hours, vs DMSO

Chain of FAK (Q05397 whole entry): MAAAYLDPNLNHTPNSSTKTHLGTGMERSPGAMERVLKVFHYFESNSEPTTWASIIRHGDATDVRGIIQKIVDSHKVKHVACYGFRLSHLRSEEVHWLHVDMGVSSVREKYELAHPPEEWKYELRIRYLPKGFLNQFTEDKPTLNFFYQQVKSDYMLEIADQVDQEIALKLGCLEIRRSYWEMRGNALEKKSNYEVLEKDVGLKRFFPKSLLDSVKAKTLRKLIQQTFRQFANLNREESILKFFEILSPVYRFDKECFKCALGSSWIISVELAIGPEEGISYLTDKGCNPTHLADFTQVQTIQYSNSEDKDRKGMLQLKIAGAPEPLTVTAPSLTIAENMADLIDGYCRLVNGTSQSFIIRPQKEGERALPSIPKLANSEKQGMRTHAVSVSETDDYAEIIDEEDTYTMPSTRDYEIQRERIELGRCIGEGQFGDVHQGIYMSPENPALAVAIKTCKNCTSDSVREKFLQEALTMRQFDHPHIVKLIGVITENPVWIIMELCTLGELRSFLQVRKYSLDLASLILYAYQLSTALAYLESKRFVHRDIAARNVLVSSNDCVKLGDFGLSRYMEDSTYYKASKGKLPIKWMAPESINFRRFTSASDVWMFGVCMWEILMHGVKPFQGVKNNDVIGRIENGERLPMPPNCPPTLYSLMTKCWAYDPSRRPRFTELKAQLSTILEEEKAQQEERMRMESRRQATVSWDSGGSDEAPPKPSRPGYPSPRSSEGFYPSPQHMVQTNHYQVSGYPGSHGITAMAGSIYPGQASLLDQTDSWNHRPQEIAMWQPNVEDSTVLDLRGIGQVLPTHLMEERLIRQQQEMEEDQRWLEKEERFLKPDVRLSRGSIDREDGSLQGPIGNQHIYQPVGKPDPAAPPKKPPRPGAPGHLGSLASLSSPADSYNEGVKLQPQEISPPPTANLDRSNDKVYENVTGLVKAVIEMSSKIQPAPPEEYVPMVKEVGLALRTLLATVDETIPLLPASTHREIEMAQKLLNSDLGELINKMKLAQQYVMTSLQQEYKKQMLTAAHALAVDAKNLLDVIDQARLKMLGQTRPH

Structure (SMILES) | Concentration at which degradation of FAK protein is evident [1] | Concentration of maximal degradation of FAK protein [1] | inhibition at 0.01 µM [2] | inhibition at 0.1 µM [3] | Concentration giving modest degradation of FAK protein [1] | Degradation of FAK protein (in words) (PA-TU-8988T cells, 0.1 nM to 1000 nM, 4 hours, immunoblot) | inhibition at 0.01 µM (4 h) | inhibition at 0.1 µM (4 h)
CNC(=O)c1ccccc1Nc1cc(Nc2ccc(N3CCN(CCCCCCCCNc4cccc5c4C(=O)N(C4CCC(=O)NC4=O)C5=O)CC3)cc2OC)ncc1C(F)(F)F (stereo not shown) [Compound 6, 2-((2-((4-(4-(8-((2-(2,6-dioxopiperidin-3-yl)-1,3-dioxoisoindolin-4-yl)amino)octyl)piperazin-1-yl)-2-methoxyphenyl)amino)-5-(trifluoromethyl)pyridin-4-yl)amino)-N-methylbenzamide] | 10 nM | 100 nM | 85 to 100% | 85 to 100% | – | – | – | –
CNC(=O)c1ccccc1Nc1cc(Nc2ccc(N3CCN(CCOCCOCCOCCNC(=O)COc4cccc5c4C(=O)N(C4CCC(=O)NC4=O)C5=O)CC3)cc2OC)ncc1C(F)(F)F (stereo not shown) [Compound 3, 2-((2-((4-(4-(1-((2-(2,6-dioxopiperidin-3-yl)-1,3-dioxoisoindolin-4-yl)oxy)-2-oxo-6,9,12-trioxa-3-azatetradecan-14-yl)piperazin-1-yl)-2-methoxyphenyl)amino)-5-(trifluoromethyl)pyridin-4-yl)amino)-N-methylbenzamide] | – | – | 50 to 69% | 85 to 100% | 100 nM | – | – | –
CNC(=O)c1ccccc1Nc1cc(Nc2ccc(N3CCN(CCCCCCNC(=O)COc4cccc5c4C(=O)N(C4CCC(=O)N(C)C4=O)C5=O)CC3)cc2OC)ncc1C(F)(F)F (stereo not shown) [Compound 2, 2-((2-((2-methoxy-4-(4-(6-(2-((2-(1-methyl-2,6-dioxopiperidin-3-yl)-1,3-dioxoisoindolin-4-yl)oxy)acetamido)hexyl)piperazin-1-yl)phenyl)amino)-5-(trifluoromethyl)pyridin-4-yl)amino)-N-methylbenzamide] | – | – | 0 to 24% | 0 to 24% | – | did not induce degradation of FAK protein | – | –
CS(=O)(=O)c1cccc(CNc2nc(Nc3ccc(C(=O)N4CCN(CCCCCNC(=O)COc5cccc6c5C(=O)N(C5CCC(=O)NC5=O)C6=O)CC4)cc3)ncc2C(F)(F)F)c1 (stereo not shown) [Compound 8, 2-((2-(2,6-dioxopiperidin-3-yl)-1,3-dioxoisoindolin-4-yl)oxy)-N-(5-(4-(4-((4-((3-(methylsulfonyl)benzyl)amino)-5-(trifluoromethyl)pyrimidin-2-yl)amino)benzoyl)piperazin-1-yl)pentyl)acetamide] | – | 100 nM | – | – | 10 nM | – | 0 to 24% | 25 to 49%
CNC(=O)c1ccccc1Nc1cc(Nc2ccc(N3CCN(CCOCCOCCNC(=O)CNc4cccc5c4C(=O)N(C4CCC(=O)NC4=O)C5=O)CC3)cc2OC)ncc1C(F)(F)F (stereo not shown) [Compound 4, 2-((2-((4-(4-(2-(2-(2-(2-((2-(2,6-dioxopiperidin-3-yl)-1,3-dioxoisoindolin-4-yl)amino)acetamido)ethoxy)ethoxy)ethyl)piperazin-1-yl)-2-methoxyphenyl)amino)-5-(trifluoromethyl)pyridin-4-yl)amino)-N-methylbenzamide] | 10 nM | 100 nM | 70 to 84% | 85 to 100% | – | – | – | –
CS(=O)(=O)c1cccc(CNc2nc(Nc3ccc(C(=O)NCCCCCCCCNC(=O)COc4cccc5c4C(=O)N(C4CCC(=O)NC4=O)C5=O)cc3)ncc2C(F)(F)F)c1 (stereo not shown) [Compound 7, N-(8-(2-((2-(2,6-dioxopiperidin-3-yl)-1,3-dioxoisoindolin-4-yl)oxy)acetamido)octyl)-4-((4-((3-(methylsulfonyl)benzyl)amino)-5-(trifluoromethyl)pyrimidin-2-yl)amino)benzamide] | 10 nM | 100 nM | 25 to 49% | 85 to 100% | – | – | – | –
